Assay results: patent US5693492A, “DNA encoding glutamate gated chloride channels” (priority 1995, dated 1997)

Target: T1, Dros GluCl (Drosophila melanogaster, UniProt Q94900, I27V/K241R)
T1 construct: Clone pDros GluCl was linearized by digestion with the restriction endonuclease SalI; expressed in transfected cells; host or cells: Xenopus laevis oocytes injected with in vitro transcribed Dros GluCl RNA
Experiment: cell-based
Conditions: for Reversibility of activated current (in words): after washing drug from the bath, IVMPO4 observed for up to 10 minutes; for Sensitivity of oocytes injected with Dros GluCl RNA (in words): tested at concentrations of 1 mM or higher
Procedure: Clone pDros GluCl was linearized by digestion with the restriction endonuclease SalI. In vitro RNA was synthesized from 0.5 μg of this plasmid in a reaction containing 40 mM Tris-HCl, pH 7.5; 6 mM MgCl2; 2 mM Spermidine; 10 mM NaCl; 10 mM DTT; 0.05 mg/ml Bovine Serum Albumin; 2 units/ul RNasin; 800 μM each ATP, CTP, and UTP; 200 μMGTP; 800 μM m7G(5')ppp(5')G; 5 μCi ^32 P-CTp; and 50 units T3 RNA polymerase in a final volume of 50 μl. The reaction was incubated for 3 hours at 37° C. followed by an additional 15 minutes incubation with 20 units RNase free DNase and extraction with phenol, phenol:chloroform, and chloroform. The RNA was precipitated with 1/10 volume 3M sodium acetate and 2.5 volumes 100% ethanol, stored at -20° C. for 16 hours, washed with 70% ethanol and resuspended in water at a concentration of 1 mg/ml for injection into Xenopus laevis oocytes.
Xenopus laevis oocytes were prepared and injected using standard methods previously described and known in the art [Arena, J. P., Liu, K. K., Paress, P. S. & Cully, D. F. Mol. Pharmacol. 40, 368-374 (1991); Arena, J. P., Liu, K. K., Paress, P. S., Schaeffer, J. M. & Cully, D. F. Mol. Brain Res. 15, 339-348 (1992)]. Adult female Xenopus laevis were anesthetized with 0.17% tricaine methanesulfonate and the ovaries were surgically removed and placed in a dish consisting of (mM): NaCl 82.5, KCl 2, MgCl2 1, CaCl2 1.8, HEPES 5 adjusted to pH 7.5 with NaOH (OR-2). Ovarian lobes were broken open, rinsed several times, and gently shaken in OR-2 containing 0.2% collagenase (Sigma, Type 1A) for 2-5 hours. When approximately 50% of the follicular layers were removed, Stage V and VI oocytes were selected and placed in media consisting of (mM): NaCl 86, KCl 2, MgCl2 1, CaCl2 1.8, HEPES 5, Na pyruvate 2.5, theophylline 0.5, gentamicin 0.1 adjusted to pH 7.5 with NaOH (ND-96) for 24-48 hours before injection. Oocytes were injected with 50 nl of Dros GluCl RNA (0.01-1 mg/ml). Control oocytes were injected with 50 nl of water. Oocytes were incubated for 2-10 days in ND-96 before recording. Incubations and collagenase digestion were carried out at 18° C.
Recordings were made at room temperature in standard frog saline consisting of (mM): NaCl 115, KCl 2, MgCl2 1, CaCl2 1.8, HEPES 10, adjusted to pH 7.5 with NaOH. Oocytes were voltage-clamped using a standard two microelectrode amplifier (Dagan 8500 or TEV-200, Minneapolis, Minn.). Pipettes were filled with 3M KCl and had resistances between 0.5-3.0 megaohms. A plexiglass recording chamber (volume 200 μl) was constantly perfused at a rate of 10 ml/min. The recording chamber was connected to ground with a Ag/AgCl electrode. Data were acquired and analyzed using PCLAMP with a TL-1 interface (Axon Instruments, Foster City, Calif.). Membrane current at a holding potential of -80 mV was recorded. The amplitude of drug-sensitive current was determined by subtracting the holding current at -80 mV from the peak current obtained in the presence of drug. Data were filtered at 30 Hz and sampled at 16.6 Hz. Current/voltage relationships (I/V) and reversal potentials (Erev) were determined using a 1-3 sec voltage ramp over the voltage range of -110 to +80 mV. For the ramps, data were filtered at 0.3-3 kHz and sampled at 160 Hz. Current in drug free solution was subtracted from current in the presence of drug to obtain drug-sensitive current/voltage relationships.

T1 sequence (Q94900 23-456 I27V/K241R/S345N): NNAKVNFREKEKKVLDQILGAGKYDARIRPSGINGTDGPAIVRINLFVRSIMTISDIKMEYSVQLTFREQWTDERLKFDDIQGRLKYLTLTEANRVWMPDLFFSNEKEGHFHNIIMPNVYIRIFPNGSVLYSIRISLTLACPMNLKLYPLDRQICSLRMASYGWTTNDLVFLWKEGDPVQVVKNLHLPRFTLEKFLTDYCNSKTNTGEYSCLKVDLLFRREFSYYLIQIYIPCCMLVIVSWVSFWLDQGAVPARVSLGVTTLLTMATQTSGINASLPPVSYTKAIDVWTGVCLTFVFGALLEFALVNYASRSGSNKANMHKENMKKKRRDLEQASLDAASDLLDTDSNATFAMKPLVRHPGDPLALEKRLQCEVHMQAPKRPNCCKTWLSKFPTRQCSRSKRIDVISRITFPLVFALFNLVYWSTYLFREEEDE

Which “Time for current to fully return to baseline” value (after Compound-1, oocytes expressing Dros GluCl) does the source give for `C=C(C)C1C(=O)c2c3c(cc4c5c(n1c24)C1(C)C(CCC2C(C)(/C=C/C=C(\C)C(=O)O)C(O)CCC21C)C5)C1=CC(C)(C)OC(C)(C)C1C3O` (centres unmarked) [Compound-1] here?
Its value is “up to 10 minutes”.

What about the “Reversibility of activated current (in words)” value of the same compound?
Its value is “slowly reversible”.

What about the “Activation of membrane current (in words)” value (oocytes expressing Dros GluCl) of the same compound?
The value was “directly activated membrane current”.

With `CC[C@H](C)[C@H]1O[C@]2(CC[C@@H]1C)C[C@@H]1C[C@@H](C/C=C(\C)[C@H](O[C@H]3C[C@H](OC)[C@@H](O[C@H]4C[C@H](OC)[C@@H](OP(=O)(O)O)[C@H](C)O4)[C@H](C)O3)[C@@H](C)/C=C/C=C3\CO[C@@H]4[C@H](O)C(C)=C[C@@H](C(=O)O1)[C@]34O)O2` [IVMPO4] as the compound, how does the “Current activated, % of maximal current” value (10 nM IVMPO4, oocytes expressing Dros GluCl) read?
Its value is 20-40%.

And the “Reversibility of activated current (in words)” value?
The value was “irreversible”.

And the “Activation of membrane current (in words)” value (oocytes expressing Dros GluCl)?
Its value is “directly activated current”.

What about the “Concentration giving maximal activation of current” value (oocytes expressing Dros GluCl) of the same compound?
Its value is 1 µM.

For `N[C@@H](CCC(=O)O)C(=O)O` [glutamate], which EC50 is on record?
Its EC50 is 30 µM.

With `NCC(=O)O` [glycine] as the compound, how does the “Sensitivity of oocytes injected with Dros GluCl RNA (in words)” value (“Sensitivity of oocytes injected” below) read?
Its value is “insensitive”.

How did the “Sensitivity of oocytes injected” value turn out when `NCCc1c[nH]cn1` [histamine] was run?
The value was “insensitive”.

For `N[C@@H](CC(=O)O)C(=O)O` [aspartate], which Emax at 1000 µM (read-out: % of maximal activation) is on record?
The Emax at 1000 µM was 8%.

`C=C(C)[C@H]1CN[C@H](C(=O)O)[C@H]1CC(=O)O` [kainate] was tested. Which “Sensitivity of oocytes injected” value did it give?
Its value is “insensitive”.

What does the source list for `NC(C(=O)O)c1cc(O)no1` (centres unmarked) [ibotenate]?
Activation of membrane current (in words) (oocytes expressing Dros GluCl): reversibly activated; Concentration giving maximal activation of current (oocytes expressing Dros GluCl): 100 µM

`CN[C@H](CC(=O)O)C(=O)O` [N-methyl-D-aspartic acid] was tested. Which “Sensitivity of oocytes injected” value did it give?
The value was “insensitive”.

`NCCCC(=O)O` [GABA] was tested. Which “Sensitivity of oocytes injected” value did it give?
The value was “insensitive”.

With picrotoxin as the compound, how does the “Block of the current elicited with IVMPO4” value (500 μM picrotoxin, oocytes expressing Dros GluCl) read?
Its value is 13%.
